Test results reported in patent US20260297080A1, “BICYCLIC COMPOUNDS AS CDK INHIBITORS” (BeOne Medicines I GmbH, priority 2022, published 2026).

How the values were obtained:
CDK1/Cyclin B1 = CDK1/Cyclin B1 (Homo sapiens, UniProt P06493); experiment: CDK1/Cyclin B1 Biochemical Assay (TR-FRET), 0.015 mM ATP; settings: 0.15 μM Rb (Ser780)-biotin substrate, pH7.0, 60 min preincubation, 120 min reaction, room temperature
Summary of the method: (§1)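 Percent inhibition was derived from the 665 nm/620 nm TR-FRET ratio after a 120-minute room-temperature reaction on 0.15 μM Rb (Ser780)-biotin, preceded by 60-minute enzyme–compound preincubation. IC50 came from four-parameter logistic fitting.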

CDK2/Cyclin E1 = CDK2/Cyclin E1 (Homo sapiens, UniProt P24941); experiment: CDK2/Cyclin E1 Biochemical Assay (TR-FRET), 0.060 mM ATP; settings: 0.15 μM Rb (Ser780)-biotin substrate, pH7.0, 60 min preincubation, 120 min reaction, room temperature
Summary of the method: as §1

Sequence of CDK1/Cyclin B1 (P06493 whole entry): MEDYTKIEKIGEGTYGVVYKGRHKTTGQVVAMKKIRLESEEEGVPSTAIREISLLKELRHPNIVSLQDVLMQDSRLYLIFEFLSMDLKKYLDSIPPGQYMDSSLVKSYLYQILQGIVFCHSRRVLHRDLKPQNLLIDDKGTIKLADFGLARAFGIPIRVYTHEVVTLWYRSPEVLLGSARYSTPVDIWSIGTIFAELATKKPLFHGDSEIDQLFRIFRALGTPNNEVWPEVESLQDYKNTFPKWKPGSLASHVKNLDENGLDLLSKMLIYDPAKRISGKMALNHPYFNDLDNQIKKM
Sequence of CDK1/Cyclin B1 (P14635 whole entry partner): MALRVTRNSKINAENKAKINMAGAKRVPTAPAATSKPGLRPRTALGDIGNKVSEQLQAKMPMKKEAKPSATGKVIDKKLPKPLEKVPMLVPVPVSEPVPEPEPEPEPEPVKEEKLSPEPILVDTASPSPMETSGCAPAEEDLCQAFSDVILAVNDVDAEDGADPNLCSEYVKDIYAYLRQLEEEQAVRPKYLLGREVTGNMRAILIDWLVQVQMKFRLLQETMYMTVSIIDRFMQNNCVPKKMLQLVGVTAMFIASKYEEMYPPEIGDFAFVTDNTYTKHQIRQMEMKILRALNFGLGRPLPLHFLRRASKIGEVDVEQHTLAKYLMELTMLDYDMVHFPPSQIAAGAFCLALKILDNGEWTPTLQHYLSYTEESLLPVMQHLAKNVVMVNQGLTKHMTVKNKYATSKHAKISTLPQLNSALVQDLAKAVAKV

Row | IC50 (CDK1/Cyclin B1) [nM] | IC50 (CDK2/Cyclin E1) [nM] | Compound
1 | 512 | 2.3 | CC[C@H](C)NC(=O)O[C@H]1CC[C@@H](c2cc(Nc3ccc4c(c3Cl)CNS4(=O)=O)n[nH]2)C1 (relative stereo) [Example 41, cis-3-(3-((4-chloro-1,1-dioxido-2,3-dihydrobenzo[d]isothiazol-5-yl)amino)-1H-pyrazol-5-yl)cyclopentyl((S)-sec-butyl)carbamate]
2 | 130 | 1.1 | CC[C@H](C)NC(=O)O[C@H]1CC[C@@H](c2cc(Nc3cc4c(cc3F)S(=O)(=O)NC4)n[nH]2)C1 (relative stereo) [Example 43, cis-3-(3-((6-fluoro-1,1-dioxido-2,3-dihydrobenzo[d]isothiazol-5-yl)amino)-1H-pyrazol-5-yl)cyclopentyl((S)-sec-butyl)carbamate]
3 | 6010 | 181 | CC(C)NC(=O)O[C@H]1CC[C@@H](c2cc(Nc3cc4c(cc3F)S(=O)(=O)N(C)C4)n[nH]2)C1 (relative stereo) [Example 45, cis-3-(3-((6-fluoro-2-methyl-1,1-dioxido-2,3-dihydrobenzo[d]isothiazol-5-yl)amino)-1H-pyrazol-5-yl)cyclopentyl isopropylcarbamate]
4 | 4420 | 230 | [2H]C([2H])([2H])N1Cc2cc(Nc3cc([C@@H]4CC[C@H](OC(=O)NC(C)C)C4)[nH]n3)c(F)cc2S1(=O)=O (relative stereo) [Example 46, cis-3-(3-((6-fluoro-2-(methyl-d3)-1,1-dioxido-2,3-dihydrobenzo[d]isothiazol-5-yl)amino)-1H-pyrazol-5-yl)cyclopentyl isopropylcarbamate]
5 | 7380 | 158 | CC(C)NC(=O)O[C@H]1CC[C@@H](c2cc(Nc3cc4c(cc3F)S(=O)(=O)N(CCO)C4)n[nH]2)C1 (relative stereo) [Example 47, cis-3-(3-((6-fluoro-2-(2-hydroxyethyl)-1,1-dioxido-2,3-dihydrobenzo[d]isothiazol-5-yl)amino)-1H-pyrazol-5-yl)cyclopentyl isopropylcarbamate]
6 | > 10000 | 243 | COCCN1Cc2cc(Nc3cc([C@@H]4CC[C@H](OC(=O)NC(C)C)C4)[nH]n3)c(F)cc2S1(=O)=O (relative stereo) [Example 48, cis-3-(3-((6-fluoro-2-(2-methoxyethyl)-1,1-dioxido-2,3-dihydrobenzo[d]isothiazol-5-yl)amino-1H-pyrazol-5-yl)cyclopentyl isopropylcarbamate]
7 | > 10000 | 758 | CC(C)NC(=O)O[C@H]1CC[C@@H](c2cc(Nc3cc4c(cc3F)S(=O)(=O)N(C(C)C)C4)n[nH]2)C1 (relative stereo) [Example 49, cis-3-(3-((6-fluoro-2-isopropyl-1,1-dioxido-2,3-dihydrobenzo[d]isothiazol-5-yl)amino)-1H-pyrazol-5-yl)cyclopentyl isopropylcarbamate]
8 | 1890 | 71 | CC(C)NC(=O)O[C@H]1CC[C@@H](c2cc(Nc3ccc4c(c3F)C(C)(C)NS4(=O)=O)n[nH]2)C1 (relative stereo) [Example 55, cis-3-(3-((4-fluoro-3,3-dimethyl-1,1-dioxido-2,3-dihydrobenzo[d]isothiazol-5-yl)amino)-1H-pyrazol-5-yl)cyclopentyl isopropylcarbamate]
9 | 472 | 25 | CC1(NC(=O)O[C@H]2CC[C@@H](c3cc(Nc4ccc5c(c4F)C(C)(C)NS5(=O)=O)n[nH]3)C2)CC1 (relative stereo) [Example 56, cis-3-(3-((4-fluoro-3,3-dimethyl-1,1-dioxido-2,3-dihydrobenzo[d]isothiazol-5-yl)amino)-1H-pyrazol-5-yl)cyclopentyl(1-methylcyclopropyl)carbamate]
10 | 1080 | 48 | CC[C@H](C)NC(=O)O[C@H]1CC[C@@H](c2cc(Nc3ccc4c(c3F)C(C)(C)NS4(=O)=O)n[nH]2)C1 (relative stereo) [Example 57, cis-3-(3-((4-fluoro-3,3-dimethyl-1,1-dioxido-2,3-dihydrobenzo[d]isothiazol-5-yl)amino)-1H-pyrazol-5-yl)cyclopentyl((S)-sec-butyl)carbamate]
11 | 694 | 93 | CCCNC(=O)O[C@H]1CC[C@@H](c2cc(Nc3ccc4c(c3F)C(C)(C)NS4(=O)=O)n[nH]2)C1 (relative stereo) [Example 58, cis-3-(3-((4-fluoro-3,3-dimethyl-1,1-dioxido-2,3-dihydrobenzo[d]isothiazol-5-yl)amino)-1H-pyrazol-5-yl)cyclopentyl propylcarbamate]
12 | 296 | 5.8 | CC(C)NC(=O)O[C@H]1CC[C@@H](c2cc(Nc3ccc4c(c3F)C(=O)NS4(=O)=O)n[nH]2)C1 (relative stereo) [Example 59, cis-3-(3-((4-fluoro-1,1-dioxido-3-oxo-2,3-dihydrobenzo[d]isothiazol-5-yl)amino)-1H-pyrazol-5-yl)cyclopentyl isopropylcarbamate]
13 | 497 | 9.2 | CCN1Cc2c(ccc(Nc3cc([C@@H]4CC[C@H](OC(=O)NC(C)C)C4)[nH]n3)c2F)S1(=O)=O (relative stereo) [Example 60, cis-3-(3-((2-ethyl-4-fluoro-1,1-dioxido-2,3-dihydrobenzo[d]isothiazol-5-yl)amino)-1H-pyrazol-5-yl)cyclopentyl isopropylcarbamate]
14 | 836 | 10 | CC(C)NC(=O)O[C@H]1CC[C@@H](c2cc(Nc3ccc4c(c3F)CN(C3CCCN(C)C3)S4(=O)=O)n[nH]2)C1 (relative stereo) [Example 61, cis-3-(3-((4-fluoro-2-(1-methylpiperidin-3-yl)-1,1-dioxido-2,3-dihydrobenzo[d]isothiazol-5-yl)amino)-1H-pyrazol-5-yl)cyclopentyl isopropylcarbamate]
15 | 758 | 9.5 | CC(C)NC(=O)O[C@H]1CC[C@@H](c2cc(Nc3ccc4c(c3F)CN(C3CCN(C)CC3)S4(=O)=O)n[nH]2)C1 (relative stereo) [Example 62, cis-3-(3-((4-fluoro-2-(1-methylpiperidin-4-yl)-1,1-dioxido-2,3-dihydrobenzo[d]isothiazol-5-yl)amino)-1H-pyrazol-5-yl)cyclopentyl isopropylcarbamate]
16 | 1110 | 23 | CC(C)NC(=O)O[C@H]1CC[C@@H](c2cc(Nc3ccc4c(c3F)CN(C3CCN(Cc5ccccc5)CC3)S4(=O)=O)n[nH]2)C1 (relative stereo) [Example 63, cis-3-(3-((2-(1-benzylpiperidin-4-yl)-4-fluoro-1,1-dioxido-2,3-dihydrobenzo[d]isothiazol-5-yl)amino)-1H-pyrazol-5-yl)cyclopentyl isopropylcarbamate]
17 | 214 | 4.6 | COCCN1Cc2c(ccc(Nc3cc([C@@H]4CC[C@H](OC(=O)NC(C)C)C4)[nH]n3)c2F)S1(=O)=O (relative stereo) [Example 64, cis-3-(3-((4-fluoro-2-(2-methoxyethyl)-1,1-dioxido-2,3-dihydrobenzo[d]isothiazol-5-yl)amino)-1H-pyrazol-5-yl)cyclopentyl isopropylcarbamate]
18 | 299 | 6.9 | CC(C)NC(=O)O[C@H]1CC[C@@H](c2cc(Nc3ccc4c(c3F)CN(C(C)C)S4(=O)=O)n[nH]2)C1 (relative stereo) [Example 65, cis-3-(3-((4-fluoro-2-isopropyl-1,1-dioxido-2,3-dihydrobenzo[d]isothiazol-5-yl)amino)-1H-pyrazol-5-yl)cyclopentyl isopropylcarbamate]
19 | 412 | 7.3 | CC(C)NC(=O)O[C@H]1CC[C@@H](c2cc(Nc3ccc4c(c3F)CN(CC(F)(F)F)S4(=O)=O)n[nH]2)C1 (relative stereo) [Example 66, cis-3-(3-((4-fluoro-1,1-dioxido-2-(2,2,2-trifluoroethyl)-2,3-dihydrobenzo[d]isothiazol-5-yl)amino)-1H-pyrazol-5-yl)cyclopentyl isopropylcarbamate]
20 | 472 | 14 | CC(C)NC(=O)O[C@H]1CC[C@@H](c2cc(Nc3ccc4c(c3F)CN(C3CCC3)S4(=O)=O)n[nH]2)C1 (relative stereo) [Example 67, cis-3-(3-((2-cyclobutyl-4-fluoro-1,1-dioxido-2,3-dihydrobenzo[d]isothiazol-5-yl)amino)-1H-pyrazol-5-yl)cyclopentyl isopropylcarbamate]
21 | 1180 | 15 | CC(C)NC(=O)O[C@H]1CC[C@@H](c2cc(Nc3ccc4c(c3F)CN(C3CCCC3)S4(=O)=O)n[nH]2)C1 (relative stereo) [Example 68, cis-3-(3-((2-cyclopentyl-4-fluoro-1,1-dioxido-2,3-dihydrobenzo[d]isothiazol-5-yl)amino-1H-pyrazol-5-yl)cyclopentyl isopropylcarbamate]
22 | 647 | 9.5 | CC(C)NC(=O)O[C@H]1CC[C@@H](c2cc(Nc3ccc4c(c3F)CN(C3CCOC3)S4(=O)=O)n[nH]2)C1 (relative stereo) [Example 69, cis-3-(3-((4-fluoro-1,1-dioxido-2-(tetrahydrofuran-3-yl)-2,3-dihydrobenzo[d]isothiazol-5-yl)amino)-1H-pyrazol-5-yl)cyclopentyl isopropylcarbamate]
23 | 503 | 11 | CC(C)NC(=O)O[C@H]1CC[C@@H](c2cc(Nc3ccc4c(c3F)CN(C3CCN(C)C3)S4(=O)=O)n[nH]2)C1 (relative stereo) [Example 70, cis-3-(3-((4-fluoro-2-(1-methylpyrrolidin-3-yl)-1,1-dioxido-2,3-dihydrobenzo[d]isothiazol-5-yl)amino-1H-pyrazol-5-yl)cyclopentyl isopropylcarbamate]
